Entries after “also recorded” stand apart in the source; their conditions may differ.
Tests used:
HL-60 cells [1] = test: Cell physiology assay plate 1a: flow cytometry with MBBR, CALCEIN AM, MITOSOX RED and SYTOXRED; format: cell-based, human
Method: (§1) Cells were deposited into 384 well plates (1×10^6 cells in 40 μl tissue culture media), and serial dilutions of test compounds (or vehicle in the case of controls) were deposited in individual wells using standard robotic techniques. Compound deposition and dilution was performed by BIOMEK FX (5 or 10-step dilutions from 100 to 0.005 μM). Dilutions were prepared from stock solutions of compounds dissolved initially in 100% DMSO. Final volume deposited into each well is 2 μl of each compound dilution (compounds are in a final concentration of 1% DMSO). After incubation in a tissue culture incubator (5% CO2 at 37° C.) for varying periods of time (typically 4 hours), plates were centrifuged at room temperature, followed by removal of 20 μl supernatant fluid. After vibration of the plate to re-suspend cells, a dye mix (Plate 1a Monobromobimane, CALCEIN AM, MITOSOX™ and SYTOSOX™ RED; plate 1b VYBRANVIOLET™ Live Cell Cycle dye, JC-9, and SYTOSOX™ RED) was added in a total volume of 20 μl, followed by an additional mixing step.
Each well of the 384-well plate was sampled with a 6 second sip time, plus 1 second delay between wells, resulting in a total read time for each plate of approximately 45 minutes. Data was acquired using a CYAN™ flow cytometer, with the […]™ software used to compile files for each well on an individual plate using an FCS format. Data for each plate was subsequently analyzed for several quality assurance parameters (total number of events per well, numbers of events associated with morphologically normal events, number of dead cells), as described below.
Flow cytometric analyses of intrinsic cell properties (forward light scatter and light scattered orthogonal to the laser beam) and fluorescence signals derived from the dyes listed in Table 1 was carried out for plates 1a and 1b.
Chem. Soc. […] Technol. […] MITOSOX™ RED is a compound that can diffuse into viable cells and reacts with superoxide anion species, particularly products of mitochondrial respiration; conditions such as cell stress can cause mitochondria to respond (sometimes rapidly) by increasing respiration and/or release superoxide anions; and • (3) SYTOXRED™ to measure cell viability (loss of nuclear membrane integrity). SYTOXRED™ is a high-affinity DNA stain that can only pass through the cytoplasmic and nuclear membranes of cells which have lost the integrity of both membranes; thus, brightly fluorescent cells are dead.

[2] = system: phosphorylation of the downstream STAT5 target in K562 cells; test: Phosphorylation of STAT5 in K562 cells by flow cytometry; format: cell-based; conditions: Homo sapiens, 0.5 h, 30 min
Method: Cells were deposited onto dilutions of test compounds deposited into individual wells of […], as indicated above. Following incubation in a tissue culture incubator (5% CO2 at 37° C.) for 30 minutes to 12 hr, the cells were pelleted by centrifugation, the supernatant was removed, the cells were re-suspended by vibration in the remaining supernatant fluid, and 50 μl of fixative (1.2% formaldehyde in PBS) was added. Following 15 min incubation (at 37° C.), cells were pelleted by centrifugation, supernatant removed, and the cells were suspended by vibrating the plate.
Cell were permeabilized by adding 150 μl cold absolute methanol, followed by incubation at 4° C. for 15 minutes. Permeabilized cells were centrifuged, supernatant removed, and cells were washed three times with cold (4° C.) PBS containing 4% FBS. Following the final wash, cells were centrifuged, the supernatant was removed, and cells were re-suspended in an antibody cocktail (total volume 20 μl) appropriate for that experiment.

HL-60 cells [3] = test: Plate 1b: mitochondrial membrane potential (MMP) measured with JC-9 by flow cytometry; format: cell-based, human
Method: as §1, with “step. Plates were returned to the tissue culture incubator (5% CO2 at 37° C.) for an additional 15 min (plate 1a) or 30 min (plate 1b), followed by immediate analysis using the […]-CYAN™.” for “step.”
Measurements identical to those described in Example 2 above were made using a second combination of dyes: • (1) VYBRANVIOLET™ to measure cell cycle in live cells; • (2) JC-9 to measure mitochondrial membrane potential (MMP); and • (3) SYTOXRED™ (as described herein above).
The measurement of mitochondrial membrane potential (MMP) with JC-9 was performed with two independent fluorescence channels (green and red fluorescence signals), as changes in MMP cause aggregation of the dye, with different fluorescence emission by the aggregated versus non-aggregated dye molecules. […] At higher valinomycin concentrations, red fluorescence […]. A unique aspect of this assay is that it correlates changes in MMP (JC-9) and cell death (SYTOXRED™) with the phases of the cell cycle (G1, S, and G2M).
An identical study to the one described before was conducted with exposing HL60 cells exposed to 1.23 μM idarubicin, an analog of daunorubicin which inserts into DNA and prevents it from unwinding during DNA replication and arrests cell division.

[4] = system: human peripheral blood monocytes; test: Kinetics of signal transduction responses to LPS in whole blood monocytes by flow cytometry; format: cell-based; conditions: LPS alone
Source text: Herein, specific dyes that monitor cell membrane permeability (marker for cell death), nuclear membrane permeability (marker for cell death), signal transduction pathways implicated in DNA damage (phospho-Histone H2A, phospho-ATM/ATR, phospho-p53), signal transduction pathways implicated in inflammation (e.g., NF-kB), signal transduction via the MAP kinase pathways (ERK, SAP/JNK, p38), signal transduction via the PI3 Kinase pathway (Akt, GSK3B, RS6K, S6), early apoptotic pathways (e.g., annexin V), mid apoptotic pathways (e.g., cleaved caspase), late apoptotic pathways (e.g., PARP/DNA fragmentation), etc. may be employed.

[5] = 33 μM, cells with normal morphology
[6] = 33 μM, population with altered morphology

N#CC(C#N)=NNc1ccc(OC(F)(F)F)cc1 [FCCP, carbonyl cyanide-4-(trifluoromethoxy)phenylhydrazone]
CALCEIN AM (HL-60 cells [1]; [5]): normal | GSH (HL-60 cells [1]; [5]): normal | ROS (HL-60 cells [1]; [5]): increased ROS | nuclear and cytoplasmic membranes (SYTOX Red uptake) (HL-60 cells [1]; [5]): intact nuclear and cytoplasmic membranes | CALCEIN (HL-60 cells [1]; [6]): increased CALCEIN | GSH (HL-60 cells [1]; [6]): reduced GSH | ROS (HL-60 cells [1]; [6]): increased ROS | SYTOXRED (HL-60 cells [1]; [6]): higher SYTOXRED™

Cc1ccc(NC(=O)c2ccc(CN3CCN(C)CC3)cc2)cc1Nc1nccc(-c2cccnc2)n1 [GLEEVEC, imatinib]
inhibition at 2 µM [2]: > 95%

CNCCC(Oc1ccc(C(F)(F)F)cc1)c1ccccc1 (centres unmarked) [fluoxetine]
CALCEIN AM (HL-60 cells [1]; 100 μM): reduced CALCEIN AM | GSH (MBBR) (HL-60 cells [1]; 100 μM): reduced GSH | ROS (MITOSOX RED) (HL-60 cells [1]; 100 μM): increased ROS | cell death in relation to cell cycle (SYTOXRED histogram) (HL-60 cells [1]; 100 μM): cells are dying throughout the cell cycle

CC(=O)[C@]1(O)Cc2c(O)c3c(c(O)c2[C@@H](O[C@H]2C[C@H](N)[C@H](O)[C@H](C)O2)C1)C(=O)c1ccccc1C3=O [idarubicin]
JC-9 red fluorescence versus untreated control cells (HL-60 cells [3]; 1.23 μM): significantly higher | JC-9 green fluorescence (HL-60 cells [3]; FIG. 6B): does not increase

CO/C(=C/C(N)=O)[C@H](C)[C@H](/C=C/c1csc(-c2csc([C@@H](C)/C=C/C=C/C(C)C)n2)n1)OC [myxothiazol]
CALCEIN AM (HL-60 cells [1]; 100 μM): decrease | GSH (MBBR) (HL-60 cells [1]; 100 μM): decrease | ROS (MITOSOX RED) (HL-60 cells [1]; 100 μM): increase | SYTOXRED (cytoplasmic and nuclear membrane permeability, viability) (HL-60 cells [1]; 100 μM): increase | cell morphology (light scatter) (HL-60 cells [1]; 100 μM): significant change in cell morphology | SYTOXRED (cytoplasmic and nuclear membrane permeability, viability) (HL-60 cells [1]; 100 μM, listed as myxothiozol): perturbs cytoplasmic and nuclear membrane permeability (viability)

CC(C)[C@@H]1NC(=O)[C@H](C)OC(=O)[C@@H](C(C)C)NC(=O)[C@@H](C(C)C)OC(=O)[C@H](C(C)C)NC(=O)[C@H](C)OC(=O)[C@@H](C(C)C)NC(=O)[C@@H](C(C)C)OC(=O)[C@H](C(C)C)NC(=O)[C@H](C)OC(=O)[C@@H](C(C)C)NC(=O)[C@@H](C(C)C)OC1=O [valinomycin]
concentration at peak of JC-9 red and green fluorescence (HL-60 cells [3]; FIG. 6A legend): ~0.045 µM | concentration at peak JC-9 green fluorescence (HL-60 cells [3]; FIG. 6A, Example 4A): ~0.05 µM | JC-9 red and green fluorescence (HL-60 cells [3]; with increasing concentration, FIG. 6A): initially increase; also recorded: significantly higher

lipopolysaccharide [LPS]
ERK, Akt and S6 (phosphorylation) [4]: activated; also recorded: activates (phosphorylates) | Iκ kinase (proteasomal degradation of IκBα) [4]: activates

From patent publication US11867690B2, “Identification of functional cell states” ([…] AG, priority 2014, dated 2024)
